Measurements as given in ChEMBL document CHEMBL3611970, “Synthesis and evaluation of isatin-β-thiosemicarbazones as novel agents against antibiotic-resistant Gram-positive bacterial species” (2015).
Values after ≈ are worked out from the molar mass of the structure shown.

Legend:
Type in all cases: functional
Enterococcus faecalis [1] = test: Antimicrobial activity against Enterococcus faecalis VRE-309 after 16 hrs by broth microdilution method; details: VRE-309, 16 h
Pseudomonas aeruginosa = test: Antimicrobial activity against Pseudomonas aeruginosa PAO1 after 16 hrs by broth microdilution method; details: PAO1, 16 h
Enterococcus faecalis [2] = test: Antimicrobial activity against vancomycin-susceptible Enterococcus faecalis after 16 hrs by broth microdilution method
Staphylococcus aureus [3] = test: Antimicrobial activity against methicillin-resistant Staphylococcus aureus 309-6 clinical isolate after 16 hrs by broth microdilution method; details: 309-6, 16 h
Klebsiella pneumoniae = test: Antimicrobial activity against Klebsiella pneumoniae KP-249 clinical isolate after 16 hrs by broth microdilution method; details: KP-249, 16 h
Staphylococcus aureus [4] = test: Antimicrobial activity against methicillin-resistant Staphylococcus aureus 309-8 clinical isolate after 16 hrs by broth microdilution method; details: 309-8, 16 h
Staphylococcus aureus [5] = test: Antimicrobial activity against methicillin-resistant Staphylococcus aureus 6-42 clinical isolate after 16 hrs by broth microdilution method; details: 6-42, 16 h
Staphylococcus aureus [6] = test: Antimicrobial activity against methicillin-resistant Staphylococcus aureus 8-21 clinical isolate after 16 hrs by broth microdilution method; details: 8-21, 16 h
Staphylococcus aureus [7] = test: Antimicrobial activity against Staphylococcus aureus ATCC 6538 after 16 hrs by broth microdilution method; details: ATCC 6538, 16 h
Staphylococcus aureus [8] = test: Antimicrobial activity against methicillin-resistant Staphylococcus aureus 6281 clinical isolate after 16 hrs by broth microdilution method; details: Staphylococcus aureus, 6281, 16 h
Staphylococcus aureus [9] = test: Antimicrobial activity against methicillin-resistant Staphylococcus aureus 8-24 clinical isolate after 16 hrs by broth microdilution method; details: 8-24, 16 h
Staphylococcus aureus [10] = test: Antimicrobial activity against methicillin-resistant Staphylococcus aureus 309-4 clinical isolate after 16 hrs by broth microdilution method; details: 309-4, 16 h
Staphylococcus aureus [11] = test: Antimicrobial activity against methicillin-resistant Staphylococcus aureus 309-7 clinical isolate after 16 hrs by broth microdilution method; details: 309-7, 16 h
Staphylococcus aureus [12] = test: Antimicrobial activity against methicillin-resistant Staphylococcus aureus 309-1 clinical isolate after 16 hrs by broth microdilution method; details: 309-1, 16 h
Staphylococcus aureus [13] = test: Antimicrobial activity against methicillin-resistant Staphylococcus aureus 309-3 clinical isolate after 16 hrs by broth microdilution method; details: 309-3, 16 h
Bacillus spizizenii = test: Antimicrobial activity against Bacillus subtilis ATCC 6633 after 16 hrs by broth microdilution method; details: ATCC 6633, 16 h
Staphylococcus aureus [14] = test: Antimicrobial activity against methicillin-resistant Staphylococcus aureus Chaoyang clinical isolate after 16 hrs by broth microdilution method

| SMILES | MIC (Enterococcus faecalis [1]) | MIC (Pseudomonas aeruginosa) | MIC (Enterococcus faecalis [2]) | MIC (Staphylococcus aureus [3]) | MIC (Klebsiella pneumoniae) | MIC (Staphylococcus aureus [4]) | MIC (Staphylococcus aureus [5]) | MIC (Staphylococcus aureus [6]) | MIC (Staphylococcus aureus [7]) | MIC (Staphylococcus aureus [8]) | MIC (Staphylococcus aureus [9]) | MIC (Staphylococcus aureus [10]) | MIC (Staphylococcus aureus [11]) | MIC (Staphylococcus aureus [12]) | MIC (Staphylococcus aureus [13]) | MIC (Bacillus spizizenii) | MIC (Staphylococcus aureus [14]) |
| --- | --- | --- | --- | --- | --- | --- | --- | --- | --- | --- | --- | --- | --- | --- | --- | --- | --- |
| O=C1Nc2c(I)cccc2/C1=N/NC(=S)Nc1cccc(Cl)c1 | 3.12 µg/mL (≈ 6.83 µM) | > 100 µg/mL | 12.5 µg/mL (≈ 27.4 µM) | 6.25 µg/mL (≈ 13.7 µM) | > 100 µg/mL | 6.25 µg/mL (≈ 13.7 µM) | 3.12 µg/mL (≈ 6.83 µM) | 6.25 µg/mL (≈ 13.7 µM) | 3.12 µg/mL (≈ 6.83 µM) | 6.25 µg/mL (≈ 13.7 µM) | 3.12 µg/mL (≈ 6.83 µM) | 1.56 µg/mL (≈ 3.42 µM) | 3.12 µg/mL (≈ 6.83 µM) | 3.12 µg/mL (≈ 6.83 µM) | 3.12 µg/mL (≈ 6.83 µM) | ≤ 0.78 µg/mL | 0.78 µg/mL (≈ 1.71 µM) |
| COc1cccc(NC(=S)N/N=C2\C(=O)Nc3c(I)cccc32)c1 | 25 µg/mL (≈ 55.3 µM) | > 100 µg/mL | > 100 µg/mL | 25 µg/mL (≈ 55.3 µM) | > 100 µg/mL | 25 µg/mL (≈ 55.3 µM) | 3.12 µg/mL (≈ 6.9 µM) | 6.25 µg/mL (≈ 13.8 µM) | > 100 µg/mL | 25 µg/mL (≈ 55.3 µM) | 6.25 µg/mL (≈ 13.8 µM) | 6.25 µg/mL (≈ 13.8 µM) | 3.12 µg/mL (≈ 6.9 µM) | 6.25 µg/mL (≈ 13.8 µM) | 12.5 µg/mL (≈ 27.6 µM) | 1.56 µg/mL (≈ 3.45 µM) | 1.56 µg/mL (≈ 3.45 µM) |
| Cc1cccc(NC(=S)N/N=C2\C(=O)Nc3c(I)cccc32)c1 | 3.12 µg/mL (≈ 7.15 µM) | > 100 µg/mL | 12.5 µg/mL (≈ 28.7 µM) | 3.12 µg/mL (≈ 7.15 µM) | > 100 µg/mL | 1.56 µg/mL (≈ 3.58 µM) | 1.56 µg/mL (≈ 3.58 µM) | 1.56 µg/mL (≈ 3.58 µM) | 3.12 µg/mL (≈ 7.15 µM) | 6.25 µg/mL (≈ 14.3 µM) | 1.56 µg/mL (≈ 3.58 µM) | 1.56 µg/mL (≈ 3.58 µM) | 0.78 µg/mL (≈ 1.79 µM) | 1.56 µg/mL (≈ 3.58 µM) | 3.12 µg/mL (≈ 7.15 µM) | ≤ 0.78 µg/mL | 0.78 µg/mL (≈ 1.79 µM) |
| O=C1Nc2c(I)cccc2/C1=N/NC(=S)Nc1ccc(Cl)cc1 | 3.12 µg/mL (≈ 6.83 µM) | > 100 µg/mL | 6.25 µg/mL (≈ 13.7 µM) | 3.12 µg/mL (≈ 6.83 µM) | > 100 µg/mL | 1.56 µg/mL (≈ 3.42 µM) | 1.56 µg/mL (≈ 3.42 µM) | 1.56 µg/mL (≈ 3.42 µM) | 1.56 µg/mL (≈ 3.42 µM) | 3.12 µg/mL (≈ 6.83 µM) | 1.56 µg/mL (≈ 3.42 µM) | 0.78 µg/mL (≈ 1.71 µM) | 0.78 µg/mL (≈ 1.71 µM) | 1.56 µg/mL (≈ 3.42 µM) | 1.56 µg/mL (≈ 3.42 µM) | ≤ 0.78 µg/mL | 0.78 µg/mL (≈ 1.71 µM) |
| O=C1Nc2c(I)cccc2/C1=N/NC(=S)Nc1ccc(Br)cc1 | 3.12 µg/mL (≈ 6.23 µM) | > 100 µg/mL | 12.5 µg/mL (≈ 24.9 µM) | 6.25 µg/mL (≈ 12.5 µM) | > 100 µg/mL | 3.12 µg/mL (≈ 6.23 µM) | 1.56 µg/mL (≈ 3.11 µM) | 3.12 µg/mL (≈ 6.23 µM) | 3.12 µg/mL (≈ 6.23 µM) | 3.12 µg/mL (≈ 6.23 µM) | 3.12 µg/mL (≈ 6.23 µM) | 1.56 µg/mL (≈ 3.11 µM) | 1.56 µg/mL (≈ 3.11 µM) | 1.56 µg/mL (≈ 3.11 µM) | 3.12 µg/mL (≈ 6.23 µM) | ≤ 0.78 µg/mL | 0.78 µg/mL (≈ 1.56 µM) |
| COc1ccc(NC(=S)N/N=C2\C(=O)Nc3c(I)cccc32)cc1 | > 100 µg/mL | > 100 µg/mL | > 100 µg/mL | 25 µg/mL (≈ 55.3 µM) | > 100 µg/mL | 6.25 µg/mL (≈ 13.8 µM) | 3.12 µg/mL (≈ 6.9 µM) | 6.25 µg/mL (≈ 13.8 µM) | > 100 µg/mL | 12.5 µg/mL (≈ 27.6 µM) | 6.25 µg/mL (≈ 13.8 µM) | 6.25 µg/mL (≈ 13.8 µM) | 1.56 µg/mL (≈ 3.45 µM) | 6.25 µg/mL (≈ 13.8 µM) | 12.5 µg/mL (≈ 27.6 µM) | 3.12 µg/mL (≈ 6.9 µM) | 1.56 µg/mL (≈ 3.45 µM) |
| Cc1ccc(NC(=S)N/N=C2\C(=O)Nc3c(I)cccc32)cc1 | 3.12 µg/mL (≈ 7.15 µM) | > 100 µg/mL | 12.5 µg/mL (≈ 28.7 µM) | 3.12 µg/mL (≈ 7.15 µM) | > 100 µg/mL | 1.56 µg/mL (≈ 3.58 µM) | 0.78 µg/mL (≈ 1.79 µM) | 1.56 µg/mL (≈ 3.58 µM) | 6.25 µg/mL (≈ 14.3 µM) | 6.25 µg/mL (≈ 14.3 µM) | 3.12 µg/mL (≈ 7.15 µM) | 1.56 µg/mL (≈ 3.58 µM) | 0.78 µg/mL (≈ 1.79 µM) | 3.12 µg/mL (≈ 7.15 µM) | 3.12 µg/mL (≈ 7.15 µM) | 1.56 µg/mL (≈ 3.58 µM) | 0.78 µg/mL (≈ 1.79 µM) |
| COc1ccccc1NC(=S)N/N=C1\C(=O)Nc2c(F)cccc21 | > 100 µg/mL | > 100 µg/mL | > 100 µg/mL | > 100 µg/mL | > 100 µg/mL | > 100 µg/mL | > 100 µg/mL | > 100 µg/mL | > 100 µg/mL | > 100 µg/mL | > 100 µg/mL | > 100 µg/mL | > 100 µg/mL | > 100 µg/mL | > 100 µg/mL | > 100 µg/mL | > 100 µg/mL |
| O=C1Nc2c(I)cccc2/C1=N/NC(=S)Nc1cccc(F)c1 | 3.12 µg/mL (≈ 7.09 µM) | > 100 µg/mL | 6.25 µg/mL (≈ 14.2 µM) | 1.56 µg/mL (≈ 3.54 µM) | > 100 µg/mL | 0.78 µg/mL (≈ 1.77 µM) | 0.78 µg/mL (≈ 1.77 µM) | 1.56 µg/mL (≈ 3.54 µM) | 1.56 µg/mL (≈ 3.54 µM) | 3.12 µg/mL (≈ 7.09 µM) | 1.56 µg/mL (≈ 3.54 µM) | 0.78 µg/mL (≈ 1.77 µM) | 0.78 µg/mL (≈ 1.77 µM) | 0.78 µg/mL (≈ 1.77 µM) | 1.56 µg/mL (≈ 3.54 µM) | ≤ 0.78 µg/mL | 0.78 µg/mL (≈ 1.77 µM) |
| O=C1Nc2c(I)cccc2/C1=N/NC(=S)Nc1ccc(F)cc1 | 3.12 µg/mL (≈ 7.09 µM) | > 100 µg/mL | 6.25 µg/mL (≈ 14.2 µM) | 3.12 µg/mL (≈ 7.09 µM) | > 100 µg/mL | 1.56 µg/mL (≈ 3.54 µM) | 0.78 µg/mL (≈ 1.77 µM) | 1.56 µg/mL (≈ 3.54 µM) | 1.56 µg/mL (≈ 3.54 µM) | 3.12 µg/mL (≈ 7.09 µM) | 1.56 µg/mL (≈ 3.54 µM) | 1.56 µg/mL (≈ 3.54 µM) | 0.78 µg/mL (≈ 1.77 µM) | 3.12 µg/mL (≈ 7.09 µM) | 1.56 µg/mL (≈ 3.54 µM) | ≤ 0.78 µg/mL | 0.78 µg/mL (≈ 1.77 µM) |
| O=C(O)c1cn(C2CC2)c2cc(N3CCNCC3)c(F)cc2c1=O [CIPROFLOXACIN] | – | 1 µg/mL (≈ 3.02 µM) | – | – | – | – | – | – | – | – | – | – | – | – | – | – | – |
| COc1cccc(OC)c1C(=O)N[C@@H]1C(=O)N2[C@@H]1SC(C)(C)[C@@H]2C(=O)O [METHICILLIN] | – | – | – | > 200 µg/mL | – | > 200 µg/mL | > 200 µg/mL | > 200 µg/mL | – | > 200 µg/mL | > 200 µg/mL | > 200 µg/mL | > 200 µg/mL | > 200 µg/mL | > 200 µg/mL | – | – |
| CN[C@H](CC(C)C)C(=O)N[C@H]1C(=O)N[C@@H](CC(N)=O)C(=O)N[C@H]2C(=O)N[C@H]3C(=O)N[C@H](C(=O)N[C@H](C(=O)O)c4cc(O)cc(O)c4-c4cc3ccc4O)[C@H](O)c3ccc(c(Cl)c3)Oc3cc2cc(c3O[C@@H]2O[C@H](CO)[C@@H](O)[C@H](O)[C@H]2O[C@H]2C[C@](C)(N)[C@H](O)[C@H](C)O2)Oc2ccc(cc2Cl)[C@H]1O [VANCOMYCIN] | > 8 µg/mL | – | 2 µg/mL (≈ 1.38 µM) | – | – | – | – | – | – | – | – | – | – | – | – | 0.5 µg/mL (≈ 0.345 µM) | – |
